Assay [1] concerns activated CD4+ human T-cells (IL-2). Kind of assay: IL-2 inhibition in supernatants from activated CD4+ human T-cells (cisbio HTRF). The settings on record: CD3/CD28-activated CD4+ human T cells, ImmunoCult stimulation 20 to 24 hrs, geometric mean of count n. Type of assay: cell-based. In short, it runs like this: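 Primary human CD4+ T cells activated with CD3/CD28 for 3 days and expanded to 7-9 days total, plated at 30,000 cells/well. Cells preincubated 15 min with compound, then stimulated with ImmunoCult (1:50 final) for 20-24 h at 37° C. Supernatant IL-2 measured by HTRF (665/615 nm); IC50 from four-parameter logistic fit.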

For assay [2], the target named is Tropomyosin Receptor Kinase A (TRKA), NTRK1 enzyme (Homo sapiens (Human), UniProt P04629). Kind of assay: TRKA (NTRK1) ThermoFisher Z'-LYTE enzyme assay. Type of assay: biochemical. The settings on record: test compound 1 uM, ATP 1 mM; arithmetic mean of count n. The protocol: TRKA, also known as neurotrophic tyrosine kinase receptor type 1 (NTKR1) activity was determined by measuring the effect of a test compound on the activity against the NTRK1 enzyme using the ThermoFisher Z′-LYTE Assay fluorescence-based coupled enzyme format (www.thermofisher.com/selectscreen). Test compounds were screened at a fixed concentration of 1 uM and the % inhibition was determined compared to controls at a fixed ATP concentration of 1 mM. The resulting effect value for the tested compound was compared to the assay controls to determine the % inhibition (%).

In assay [3] the target is IL-2-Inducible T-Cell Kinase (ITK) (Homo sapiens (Human), UniProt Q08881). Kind of assay: ITK enzyme assay (IL-2-inducible T-cell kinase activity). Type of assay: biochemical. The settings on record: geometric mean of count n. In short, it runs like this:
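Full-length N-Flag/C-His human ITK, pre-incubated 30 min at RT with compound. Reaction in HEPES pH 7.5 buffer with MgCl2, glutathione, gelatin and Brij-35, started with BTK peptide substrate, 60 min at RT. EDTA stop, PT66/APC TR-FRET detection overnight; IC50 fitted by four-parameter logistic.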

Ten compounds from patent US20240124439A1, “Pyrido[2,3-D]Imidazole Derivatives and Their Use As Inhibitors of ITK for the Treatment of Skin Disease” (Pfizer Inc., priority 2020, published 2024) can be followed below.

As usually defined, the IC50 is the midpoint of a concentration-inhibition curve. A high value points to weaker potency. As a reminder, the inhibition is the relative decrease from the control value, in per cent.

Tropomyosin Receptor Kinase A (TRKA), NTRK1 enzyme, sequence (P04629 33-796): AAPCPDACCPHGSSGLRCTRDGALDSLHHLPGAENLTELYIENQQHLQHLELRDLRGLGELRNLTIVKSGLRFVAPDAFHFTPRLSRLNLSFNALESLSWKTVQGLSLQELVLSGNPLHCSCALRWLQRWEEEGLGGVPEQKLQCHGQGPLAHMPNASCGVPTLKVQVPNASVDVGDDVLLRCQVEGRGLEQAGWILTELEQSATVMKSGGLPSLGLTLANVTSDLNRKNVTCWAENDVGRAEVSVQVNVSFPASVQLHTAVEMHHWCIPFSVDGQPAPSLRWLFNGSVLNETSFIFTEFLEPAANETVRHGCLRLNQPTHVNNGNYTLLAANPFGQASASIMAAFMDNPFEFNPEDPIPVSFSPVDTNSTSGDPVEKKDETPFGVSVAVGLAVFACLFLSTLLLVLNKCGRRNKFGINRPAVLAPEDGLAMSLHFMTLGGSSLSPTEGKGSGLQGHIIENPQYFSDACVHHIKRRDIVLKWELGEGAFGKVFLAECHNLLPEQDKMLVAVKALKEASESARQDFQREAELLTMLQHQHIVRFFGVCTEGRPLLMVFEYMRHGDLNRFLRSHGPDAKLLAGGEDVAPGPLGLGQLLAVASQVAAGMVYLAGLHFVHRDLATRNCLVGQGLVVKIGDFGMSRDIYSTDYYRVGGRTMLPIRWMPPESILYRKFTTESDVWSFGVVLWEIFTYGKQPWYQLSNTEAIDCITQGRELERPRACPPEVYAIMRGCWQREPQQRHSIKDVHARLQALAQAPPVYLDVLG
IL-2-Inducible T-Cell Kinase (ITK), sequence (Q08881 whole entry): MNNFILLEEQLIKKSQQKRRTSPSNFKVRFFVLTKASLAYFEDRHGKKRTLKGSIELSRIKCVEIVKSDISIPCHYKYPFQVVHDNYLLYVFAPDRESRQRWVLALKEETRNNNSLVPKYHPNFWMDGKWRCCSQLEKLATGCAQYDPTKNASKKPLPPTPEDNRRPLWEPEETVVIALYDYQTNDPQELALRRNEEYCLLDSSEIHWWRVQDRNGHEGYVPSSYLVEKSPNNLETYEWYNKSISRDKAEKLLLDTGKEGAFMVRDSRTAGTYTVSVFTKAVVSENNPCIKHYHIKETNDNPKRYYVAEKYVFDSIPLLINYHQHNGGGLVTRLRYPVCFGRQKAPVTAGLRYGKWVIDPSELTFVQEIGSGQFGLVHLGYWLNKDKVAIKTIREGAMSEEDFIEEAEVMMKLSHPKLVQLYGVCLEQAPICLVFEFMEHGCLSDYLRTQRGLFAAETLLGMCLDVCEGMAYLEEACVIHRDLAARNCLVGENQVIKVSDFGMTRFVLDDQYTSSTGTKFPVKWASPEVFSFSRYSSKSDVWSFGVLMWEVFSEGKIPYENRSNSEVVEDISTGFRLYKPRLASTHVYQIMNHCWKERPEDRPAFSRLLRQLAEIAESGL

As for `COc1nc2[nH]c(-c3n[nH]c4c3C[C@@H]3C[C@]3(C)C4)nc2cc1N(C)C(=O)[C@H](C)N1CCOCC1` [Example 36, (S)-N-(5-Methoxy-2-((4aS,5aR)-5a-methyl-1,4,4a,5,5a,6-hexahydrocyclopropa[f]indazol-3-yl)-3H-imidazo[4,5-b]pyridin-6-yl)-N-methyl-2-morpholinopropanamide], the IC50 was 172 nM in assay [1] (T-cell) and 47 nM in assay [3]. Also, in assay [2], the inhibition at 1 µM is 95%.

On to `C[C@@H](C(=O)N(C)c1cnc2[nH]c(-c3n[nH]c4c3C[C@@H]3C(F)(F)[C@]3(C)C4)nc2c1)N1CCOCC1` [Example 23, (S)-N-(2-((4aS,5aR)-5,5-Difluoro-5a-methyl-1,4,4a,5,5a,6-hexahydrocyclopropa[f]indazol-3-yl)-3H-imidazo[4,5-b]pyridin-6-yl)-N-methyl-2-morpholinopropanamide], for which the IC50 in assay [1] (T-cell) is 1850 nM; in assay [3], 1330 nM. Moreover, the inhibition at 1 µM in assay [2] is 54%.

Turning to `CN(C(=O)CC1CCCCC1)c1cnc2nc(-c3n[nH]c4c3C[C@@H]3C[C@]3(C)C4)[nH]c2c1` [Example 47, 2-Cyclohexyl-N-methyl-N-(2-((4aS,5aR)-5a-methyl-1,4,4a,5,5a,6-hexahydrocyclopropa[f]indazol-3-yl)-1H-imidazo[4,5-b]pyridin-6-yl)acetamide], the IC50 was determined as 189 nM in assay [1] (T-cell) and 44 nM in assay [3]. Also, the inhibition at 1 µM in assay [2] came to 95%.

Regarding `CCN(C(=O)[C@H](C)N1CCOCC1)c1cnc2[nH]c(-c3n[nH]c4c3C[C@@H]3C(F)(F)[C@]3(C)C4)nc2c1` [Example 30, (S)-N-(2-((4aS,5aR)-5,5-Difluoro-5a-methyl-1,4,4a,5,5a,6-hexahydrocyclopropa[f]indazol-3-yl)-3H-imidazo[4,5-b]pyridin-6-yl)-N-ethyl-2-morpholinopropanamide], the IC50 was found to be 79 nM in assay [1] (T-cell) and 8 nM in assay [3]. The inhibition at 1 µM in assay [2] is 97%.

Turning to `CCN(C(=O)[C@@H](C)N1CCOCC1)c1cnc2[nH]c(-c3n[nH]c4c3CCC(C)(C)C4)nc2c1` [Example 22, (R)-N-(2-(6,6-Dimethyl-4,5,6,7-tetrahydro-1H-indazol-3-yl)-3H-imidazo[4,5-b]pyridin-6-yl)-N-ethyl-2-morpholinopropanamide], the results for the IC50 in assay [1] (T-cell) and in assay [3] were 471 nM and 85 nM, respectively. The inhibition at 1 µM in assay [2] was found to be 94%.

Regarding `C[C@H](C(=O)N(C)c1cnc2[nH]c(-c3n[nH]c4c3C[C@@H]3C[C@]3(C)C4)nc2c1)C1CCOCC1` [Example 10, (S)-N-Methyl-N-(2-((4aS,5aR)-5a-methyl-1,4,4a,5,5a,6-hexahydrocyclopropa[f]indazol-3-yl)-3H-imidazo[4,5-b]pyridin-6-yl)-2-(tetrahydro-2H-pyran-4-yl)propanamide], the values for the IC50 in assay [1] (T-cell) and in assay [3] were 338 nM and 91 nM, respectively. In addition, in assay [2], the inhibition at 1 µM worked out at 98%.

As for `CN(C(=O)CN1CCOCC1)c1cnc2nc(-c3n[nH]c4c3C[C@@H]3C[C@]3(C)C4)[nH]c2c1` [Example 58, N-Methyl-N-(2-((4aS,5aR)-5a-methyl-1,4,4a,5,5a,6-hexahydrocyclopropa[f]indazol-3-yl)-1H-imidazo[4,5-b]pyridin-6-yl)-2-morpholinoacetamide], the IC50 in assay [1] (T-cell) turned out to be 380 nM; in assay [3] it was 102 nM. The inhibition at 1 µM in assay [2] amounted to 108%.

Turning to `C[C@@H](C(=O)N(C)c1cnc2[nH]c(-c3n[nH]c4c3C[C@H]3C[C@@]3(C)C4)nc2c1)N1CCOCC1` [Example 29, (2S)-N-Methyl-N-(2-(5a-methyl-1,4,4a,5,5a,6-hexahydrocyclopropa[f]indazol-3-yl)-3H-imidazo[4,5-b]pyridin-6-yl)-2-morpholinopropanamide], the IC50 worked out at 2530 nM in assay [1] (T-cell) and 2850 nM in assay [3]. Besides, the inhibition at 1 µM in assay [2] turned out to be 69%.

`C[C@@H](C(=O)N(C)c1cnc2[nH]c(-c3n[nH]c4c3C[C@@H]3C[C@]3(C)C4)nc2c1)C1CCOCC1` [Example 1, (R)-N-Methyl-N-(2-((4aS,5aR)-5a-methyl-1,4,4a,5,5a,6-hexahydrocyclopropa[f]indazol-3-yl)-3H-imidazo[4,5-b]pyridin-6-yl)-2-(tetrahydro-2H-pyran-4-yl)propenamide]: the values for the IC50 in assay [1] (T-cell) and in assay [3] were 67 nM and 9 nM, respectively. Also, the inhibition at 1 µM in assay [2] worked out at 96%.

Regarding `CCN(C(=O)[C@H](C)C1CCOCC1)c1cnc2[nH]c(-c3n[nH]c4c3C[C@@H]3C[C@]3(C)C4)nc2c1` [Example 19, (R)-N-Ethyl-N-(2-((4aS,5aR)-5a-methyl-1,4,4a,5,5a,6-hexahydrocyclopropa[f]indazol-3-yl)-3H-imidazo[4,5-b]pyridin-6-yl)-2-(tetrahydro-2H-pyran-4-yl)propenamide], the values for the IC50 in assay [1] and in assay [3] were 153 nM and 17 nM, respectively. Moreover, the TRKA % inhibition in assay [2] was found to be 98%.
